These results are taken from patent publication US11806407B2, “Refillable drug delivery by affinity homing” (UNIVERSITY OF NOTRE DAME DU LAC, priority 2018, dated 2023).

The IC50 is the midpoint of a concentration-inhibition curve. A lower IC50 goes with inhibition by little substance. Broadly, the LD50 is the dose expected to kill half of the subjects tested.

Read-outs that look alike come from different tables or passages of the source.

For series [1] the following is noted: known competitor or probe guests, cited from earlier work.
Series [2] can be described thus: Competition 1H-NMR to determine Keq of guests for CB[7]. It counts as binding.
Experimental: Determination of Keq by ^1H-NMR competition experiments. ^1H-NMR competition experiments were performed on a 500 MHz Bruker NMR spectrometer, according to the method described by Isaacs and colleagues. Briefly, NMR samples were prepared at three different ratios of a) a model compound for the PEG-appended guest, b) a competitive guest with a previously reported binding constant, and c) free unmodified CB[7]. Samples were prepared in D2O and allowed to reach equilibrium for times ranging from ˜30 minutes for the weakest guest to 4 days for the strongest guests. Equilibrium was verified by tracking the measured ^1H-NMR resonances until the spectra became constant. ^1H-NMR spectra were then acquired for each sample. […] The concentrations of the bound and free guest were obtained by this method, also yielding the concentration for the bound and the free form of the competing guest as well. In these equilibrium mixture, the Krel values were calculated using the relationships below. Krel values for 3 independent experiments with varying and known ratios of each of three components were averaged to obtain the final estimated Keq values.
[formula] Krel can alternatively be expressed as follows:
[formula] Rearranging yields the following expression for Keq: Krel,test=Krel,test/known×Keq,known
The conditions of series [3]: on the basis of fluorescence.
A short description of series [4]: Solubility of bupivacaine alone and with CB[7]. It counts as physicochemical.
Series [5] is described as follows: NMR of bupivacaine bound to CB[7]. The series is classed as binding. The conditions noted are these: preliminary, based on prior experience.
The test system of series [6] is MDA-MB-231 (luc+) tumor. The series is described as follows: In vivo tumor model with hydrogel adjacent to the tumor. The conditions noted are these: 3 mg/kg/day doxorubicin equivalent, three consecutive days. Also on record: species or system mice.
Experimental: (§1) In Vivo Tumor Model. Luciferase-expressing MDA-MB-231 cells (Gen Target Inc) were received and passaged 3 times under sterile conditions in standard growth media (DMEM with 10% FBS). Tumors were induced by the injection of 106 cells suspended in 50% growth factor-reduced Matrigel (BD Biosciences) to a total volume of 200 μL (100 μL PBS and 100 μL Matrigel) subcutaneously onto the shaved right flank of NSG mice under sterile conditions. After 14 days, mice without palpable tumors were culled from the study. […] This day was considered as ‘day 0’ throughout the study. One day after gel injection (day 1), tumors started being tracked using in vivo bioluminescence imaging using an IVIS Lumina Imager. Mice were intraperitoneally injected with 0.1 ml of 30 mg/ml D-Luciferin in 1×DPBS 10 min before imaging, determined from control experiments to be sufficient to capture luminescent signal at its plateau. Mice were randomized into groups. Treated animals received Fc-Hdz-Dox or Me-Hdz-Dox (6 mg/kg Dox-equivalent dose) by i.p. injection in 0.1 ml saline 1, 2, and 3 days after hydrogel application. PBS was injected in the same way into control animals. Throughout the study, in vivo bioluminescence imaging and body weight was collected for treated mice every three days. At day 28, mice were euthanized and tumors were excised and weighed.
Series [7] relates to MDA-MB-231 cells. The experiment in a line: MTT in vitro cytotoxicity assay. It counts as cell-based. The conditions noted are these: Homo sapiens, 72 hrs.
Experimental: In Vitro Drug Functional Assay. […] Briefly, MDA-MB-231 cells were seeded in 96 well plates at a density of 20,000 cells per well in 200 μL complete growth media (DMEM with 10% FBS) and cultured for 24 hrs. Assorted concentrations of Fc-Hdz-Dox, Me-Hdz-Dox and free doxorubicin were prepared in fresh growth media were prepared and added to each well. The cells were incubated for 72 hrs. Controls consisted of cells grown in the same volume of normal media, and background was collected from wells with media only. The media in each well were replaced with 100 uL of 3-(4,5-dimethylthiazol-2-yl)-2,5-diphenyltetrazolium bromide (MTT) salt in PBS solution at a concentration of 2 mg/mL. After incubation at 37° C. for 1 hr, the supernatant was replaced with 100 μL of dimethyl sulfoxide (DMSO) and plates were agitated for 15 minutes at room temperature. Absorbance readings were collected on a TECAN Infinite M200 PRO microplate reader at 570 nm. Results were expressed as viability relative to the cell number in the untreated wells. Samples were fit to a standard dose-response function (GraphPad Prism v8) to extract the IC50 for each compound.
The nature of series [8]: Weight, survival and morbidity in the tumor studies. The conditions noted are these: 3 mg/kg/day doxorubicin equivalent, three consecutive days.
Experimental: as §1
The conditions of series [9]: mice, i.p., RTECS database; cited from earlier work.
For series [10] the following is noted: cited from earlier work.
The conditions of series [11]: rats; cited from earlier work.

Regarding `NCCCCCCN` [1,6-diaminohexane], the “Keq for binding to CB[7], literature-reported” value (“Keq … literature-reported” for short) in [1] was 8.9e+07 M⁻¹.
With `OC12CC3CC(CC(C3)C1)C2` [1-adamantanol], the figures for the “Keq … literature-reported” value in series [1] and in [1] (listed as SM2) were 2.3e+10 M⁻¹ and around 1e+10 M⁻¹, respectively.
`CN(C)c1ccc2cc3ccc(N(C)C)cc3nc2c1` [Acridine Orange]: the “Keq … literature-reported” value in series [1] is 200000 M⁻¹.
With `CN1/C(=C/C=C/C=C/C2=[N+](CCCCCC(=O)NCCC(=O)NC34CC5CC(CC(C5)C3)C4)c3ccc(S(=O)(=O)[O-])cc3C2(C)C)C(C)(C)c2cc(S(=O)(=O)O)ccc21` [Ad-Am-Cy5], in series [2] (competition 1H-NMR in D2O, association constant), the “Keq for binding to CB[7]” value turned out to be 2.1e+10 M⁻¹. Also, the “fold less accumulation at the hydrogel than the strong conjugate” value in series [3] is 3 fold.
`CC(=O)NCCC(=O)NC12CC3CC(CC(C3)C1)C2` [Ada-Am-Ac] displayed a Krel in [2] (model guest relative to competitive guest, average of three competition experiments) of 0.89.
As to `CCCCN1CCCCC1C(=O)Nc1c(C)cccc1C` (stereo not shown) [bupivacaine], in series [4] (combined with CB[7]), the water solubility result is reported as “very good water solubility”. In series [4] (on its own), the solubility entry was “sparingly soluble”. The “binding to CB[7]” value in series [5] was ~10^8 M^−1.
On to `COc1cccc2c1C(=O)c1c(O)c3c(c(O)c1C2=O)C[C@@](O)(C(=O)CO)C[C@@H]3O[C@H]1C[C@H](N)[C@H](O)[C@H](C)O1` [doxorubicin], for which, in series [6], the tumor growth result is given as “tumors continued to grow in spite of treatment”. Further, in [7], the IC50 was 490 nM. Also, the “tolerability (weight, survival)” value in series [8] is “weight loss and poor survival outcomes”. Besides, in series [9], the LD50 is listed as 11.2 mg/kg.
`NCc1ccc(CN)cc1` [p-xylylenediamine]: the “Keq … literature-reported” value in series [1] was 1.78e+09 M⁻¹; in series [1] (listed as SM^−1), around 1e+09 M⁻¹; in series [1] (listed as pxylylenediamine) it was 1.84e+09 M⁻¹.
Consider cucurbit[7]uril [CB[7]], for which the degradation in vivo result in series [10] is listed as “not appreciably degraded in vivo”. The LD50 in series [11] is above 250 mg/kg.
